In patent US8754057B2, “Inhibition of apoptosis-specific eIF-5A(eIF-5A1″) with antisense oligonucleotides and siRNA as anti-inflammatory therapeutics” (Senesco Technologies, Inc., priority 2003, dated 2014):

Tested on: lamina cribrosa cell line #506
Test: Hoescht staining apoptosis of siRNA-transfected lamina cribrosa cells treated with TNF-α and camptothecin
Assay type: cell-based, human
Settings: LC #506, 72 h after siRNA transfection, 24 h 10 ng/ml TNF-α plus 50 μM camptothecin
Procedure: Lamina cribrosa cell line #506 cells were seeded at 7500 cells per well onto an 8-well culture slide. Three days later the LC cells were transfected with either GAPDH siRNA, apoptosis-specific eIF-5A siRNAs #1-4 (SEQ ID NO:30-33), or control siRNA #5 (SEQ ID NO:34). 72 hours after transfection, the transfected cells were treated with 10 ng/ml TNF-α plus 50 μM camptothecin. Twenty-four hours later the cells were stained with Hoescht 33258 and viewed by fluorescence microscopy using a UV filter. Cells with brightly stained condensed or fragmented nuclei were counted as apoptotic. This graph represents the average of n=4 independent experiments.
Following transfection, RKO and lamina cribrosa cells were incubated for 72 hours prior to collection of cellular extract for Western blot analysis. In order to determine the effectiveness of the siRNAs directed against apoptosis-specific eIF-5A to block apoptosis, lamina cribrosa cells were treated with 50 μM of camptothecin (Sigma) and 10 ng/ml of TNF-α (Leinco Technologies) to induce apoptosis either 48 or 72 hours after transfection. The cells were stained with Hoescht either 24 or 48 hours later in order to determine the percentage of cells undergoing apoptosis.
Small inhibitory RNAs (siRNAs) directed against human apoptosis-specific eIF-5A were used to specifically suppress expression of eIF5A in lamina cribrosa cells. Six siRNAs were generated by in vitro transcription using the Silencer™ siRNA Construction Kit (Ambion Inc.), Four siRNAs were generated against human apoptosis-specific eIF-5A (siRNAs #1 to #4). […] The siRNAs were generated according to the manufacturer's protocol. The eIF5A and control siRNA targets had the following sequences: siRNA #1 5′ […] 3′ (SEQ ID NO: 81); siRNA #2 5′ […] 3′ (SEQ ID NO: 82); siRNA #3 5′ […] 3′ (SEQ ID NO: 83); siRNA #4 5′ […] 3′ (SEQ ID NO: 84); siRNA #5′ […] 3′ (SEQ ID NO: 85). Lamina cribrosa cells were transfected with siRNA using LipofectAMINE 2000.
Lamina cribrosa cells were transfected when cell confluence was at 40 to 70% and were generally seeded onto 8-well culture slides at 7500 cells per well three days prior to transfection. Transfection medium sufficient for one well of an 8-well culture slide was prepared by diluting 25.5 proles of siRNA to a final volume of 21.2 μl in Opti-Mem (Sigma). 0.425 μl of Lipofectamine 2000 was diluted to a final volume of 21.2 μl in Opti-Mem and incubated for 7 to 10 minutes at room temperature. The diluted Lipofectamine 2000 mixture was then added to the diluted siRNA mixture and incubated together at room temperature for 20 to 30 minutes, The cells were washed once with serum-free media before adding 135 μl of serum-free media to the cells and overlaying 42.4 μl of transfection medium. […]

siRNA #1: siRNA against human apoptosis-specific eIF-5A (SEQ ID NO:30); target 5′ AAAGGAATGACTTCCAGCTGA 3′ (SEQ ID NO: 81) (AAAGGAAUGACUUCCAGCUGATT; RNA, all phosphodiester, T or U not given here; listed as Homo sapiens)
reduce apoptosis of LC cells: 59%
